Measured values published in US10035789B2, “Compounds useful for treating disorders related to RET” (BLUEPRINT MEDICINES CORPORATION, priority 2016, dated 2018).

Legend:
RET V804L = target: T1, RET V804L (Homo sapiens, UniProt P07949, V804L); assay: RET V804L Gatekeeper Mutant Assay at KM (Caliper electrophoretic mobility shift); type: biochemical; conditions: 10 μM ATP, 25° C., 120 minutes
T1 construct: purchased ProQinase 1096-0000-1

wild type RET = target: T2, wild type RET (Homo sapiens, UniProt P07949); assay: RET Wild Type Assay at KM (Caliper electrophoretic mobility shift); type: biochemical; conditions: 25 μM ATP, 25° C., 120 minutes
T2 construct: purchased ProQinase 1090-0000-1
T2 sequence (P07949 29-1114): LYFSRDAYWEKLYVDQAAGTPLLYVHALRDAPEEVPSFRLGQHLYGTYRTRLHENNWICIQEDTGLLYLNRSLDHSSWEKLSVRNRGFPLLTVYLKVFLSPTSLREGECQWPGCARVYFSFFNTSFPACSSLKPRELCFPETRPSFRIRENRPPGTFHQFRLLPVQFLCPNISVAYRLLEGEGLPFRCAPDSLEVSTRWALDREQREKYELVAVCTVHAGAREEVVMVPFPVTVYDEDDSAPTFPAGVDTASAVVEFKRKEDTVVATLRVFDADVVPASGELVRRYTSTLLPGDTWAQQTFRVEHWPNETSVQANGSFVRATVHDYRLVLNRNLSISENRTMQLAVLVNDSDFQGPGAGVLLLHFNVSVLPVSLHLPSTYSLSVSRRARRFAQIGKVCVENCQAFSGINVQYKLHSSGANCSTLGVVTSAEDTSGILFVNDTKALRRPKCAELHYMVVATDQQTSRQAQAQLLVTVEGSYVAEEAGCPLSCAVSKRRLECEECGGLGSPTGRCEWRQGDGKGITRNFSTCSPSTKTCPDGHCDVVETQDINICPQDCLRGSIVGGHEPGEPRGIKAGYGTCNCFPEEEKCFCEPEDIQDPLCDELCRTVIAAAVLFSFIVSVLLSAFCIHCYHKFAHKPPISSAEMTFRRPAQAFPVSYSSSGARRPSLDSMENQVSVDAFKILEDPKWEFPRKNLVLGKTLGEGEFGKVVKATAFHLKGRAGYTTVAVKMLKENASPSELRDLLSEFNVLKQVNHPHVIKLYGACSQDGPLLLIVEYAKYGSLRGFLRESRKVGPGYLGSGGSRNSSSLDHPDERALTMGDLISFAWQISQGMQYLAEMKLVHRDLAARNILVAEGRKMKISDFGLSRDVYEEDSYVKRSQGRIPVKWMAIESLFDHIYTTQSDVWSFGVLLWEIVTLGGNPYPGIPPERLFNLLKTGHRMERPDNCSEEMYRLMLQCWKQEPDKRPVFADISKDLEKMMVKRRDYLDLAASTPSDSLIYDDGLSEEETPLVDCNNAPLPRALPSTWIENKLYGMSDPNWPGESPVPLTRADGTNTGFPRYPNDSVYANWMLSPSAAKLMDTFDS

T1 sequence (P07949 29-1114 V804L): as the sequence (P07949 29-1114) above, with V776L counted along it

SMILES | IC50 (RET V804L) | IC50 (wild type RET)
Cc1cc(Nc2cc(C)[nH]n2)nc(C2(O)CCC(C(=O)N[C@@H](C)c3ccc(-n4cc(F)cn4)nc3)C2)c1 (stereo partly shown) [Compound 118] | < 10 nM | < 10 nM
Cc1cc(Nc2cc(C)[nH]n2)nc([C@@H]2CC[C@@H](C(=O)N[C@@H](C)c3ccc(-n4cc(F)cn4)nc3)C2)n1 (single isomer, unassigned) [Compound 109] | < 10 nM | < 10 nM
Cc1cc(Nc2cc(C)[nH]n2)nc(C2CCC(C(=O)N[C@@H](C)c3ccc(-n4cc(F)cn4)nc3)C2)n1 (mixture of isomers) [Compound 106, N—((S)-1-(6-(4-fluoro-1H-pyrazol-1-yl)pyridin-3-yl)ethyl)-3-(4-methyl-6-((5-methyl-1H-pyrazol-3-yl)amino)pyrimidin-2-yl)cyclopentane-1-carboxamide] | < 10 nM | < 10 nM
Cc1cc([C@@H]2CC[C@](C)(C(=O)N[C@@H](C)c3ccc(-n4cc(F)cn4)nc3)C2)nc(Nc2cc(C)[nH]n2)n1 (single isomer, unassigned) [Compound 117, (1R,3R or 1S,3S)—N—((S)-1-(6-(4-fluoro-1H-pyrazol-1-yl)pyridin-3-yl)ethyl)-1-methyl-3-(6-methyl-2-((5-methyl-1H-pyrazol-3-yl)amino)pyrimidin-4-yl)cyclopentane-1-carboxamide] | < 10 nM | < 10 nM
Cc1cc(Nc2cc(C)[nH]n2)nc([C@H]2CC[C@@H](C(=O)N[C@@H](C)c3ccc(-n4cc(F)cn4)nc3)C2)n1 (single isomer, unassigned) [Compound 108] | 10 to 100 nM | 10 to 100 nM
Cc1cc(Nc2cc(C)[nH]n2)nc([C@]2(O)CC[C@@H](C(=O)N[C@@H](C)c3cnc(-n4cc(F)cn4)cn3)C2)c1 [Compound 125] | < 10 nM | 10 to 100 nM
Cc1cc(Nc2cc(C)[nH]n2)nc(C2(O)CCC(C(=O)NCc3ccc(-n4nc(C)cc4C)nc3)C2)c1 (mixture of isomers) [Compound 111] | < 10 nM | < 10 nM
Cc1cc(Nc2cc(C)[nH]n2)nc(C2(O)CCC(C(=O)N[C@@H](C)c3cnc(-n4cc(F)cn4)cn3)C2)c1 (mixture of isomers) [Compound 123] | < 10 nM | < 10 nM
Cc1cc(Nc2cc(C)[nH]n2)nc([C@H]2CC[C@H](C(=O)N[C@@H](C)c3ccc(-n4cc(F)cn4)nc3)C2)n1 (single isomer, unassigned) [Compound 110] | < 10 nM | < 10 nM
Cc1cc(Nc2cc(C)[nH]n2)nc([C@H]2CC[C@@](C)(C(=O)N[C@@H](C)c3ccc(-n4cc(F)cn4)nc3)C2)n1 [Compound 113] | 10 to 100 nM | 10 to 100 nM
Cc1cc(Nc2cc(C)[nH]n2)nc([C@@]2(O)CC[C@H](C(=O)N[C@@H](C)c3cnc(-n4cc(F)cn4)cn3)C2)c1 [Compound 124] | < 10 nM | < 10 nM
Cc1cc(Nc2cc(C)[nH]n2)nc([C@@H]2CC[C@](C)(C(=O)N[C@@H](C)c3ccc(-n4cc(F)cn4)nc3)C2)n1 [Compound 112] | 10 to 100 nM | > 100 nM
Cc1cc(Nc2cc(C)[nH]n2)nc([C@H]2CC[C@](C)(C(=O)N[C@@H](C)c3ccc(-n4cc(F)cn4)nc3)C2)n1 [Compound 114] | < 10 nM | < 10 nM
Cc1cc(Nc2cc(C)[nH]n2)nc([C@]2(O)CC[C@@](C)(C(=O)N[C@@H](C)c3ccc(-n4cc(F)cn4)nc3)C2)c1 [Compound 128] | < 10 nM | < 10 nM
Cc1cc(Nc2cc(C)[nH]n2)nc([C@@]2(O)CC[C@](C)(C(=O)N[C@@H](C)c3ccc(-n4cc(F)cn4)nc3)C2)c1 [Compound 129] | < 10 nM | < 10 nM
Cc1cc([C@@H]2CC[C@@](C)(C(=O)N[C@@H](C)c3ccc(-n4cc(F)cn4)nc3)C2)nc(Nc2cc(C)[nH]n2)n1 (single isomer, unassigned) [Compound 116, (1R,3R or 1S,3S)—N—((S)-1-(6-(4-fluoro-1H-pyrazol-1-yl)pyridin-3-yl)ethyl)-1-methyl-3-(6-methyl-2-((5-methyl-1H-pyrazol-3-yl)amino)pyrimidin-4-yl)cyclopentane-1-carboxamide] | < 10 nM | < 10 nM
Cc1cc(Nc2cc(C)[nH]n2)nc([C@@H]2CC[C@@](C)(C(=O)N[C@@H](C)c3ccc(-n4cc(F)cn4)nc3)C2)n1 [Compound 115] | – | < 10 nM
Cc1cc(Nc2cc(C)[nH]n2)nc([C@@H]2CC[C@H](C(=O)N[C@@H](C)c3ccc(-n4cc(F)cn4)nc3)C2)n1 (single isomer, unassigned) [Compound 107] | 10 to 100 nM | 10 to 100 nM

More lines, now with the values ahead:

IC50 (RET V804L) | IC50 (wild type RET) | SMILES
< 10 nM | 10 to 100 nM | Cc1cc(Nc2cc(C3CC3)[nH]n2)nc([C@@]2(O)CC[C@H](C(=O)NCc3ccccc3)C2)c1 [Compound 100]
< 10 nM | 10 to 100 nM | Cc1cc(Nc2cc(C)[nH]n2)nc([C@@]2(O)CC[C@H](C(=O)NCc3ccc(-n4cccn4)nc3)C2)c1 [Compound 104]
10 to 100 nM | 10 to 100 nM | Cc1cc(Nc2cc(C)[nH]n2)nc([C@]2(O)CC[C@H](C(=O)N[C@@H](C)c3ccc(-n4cc(F)cn4)nc3)C2)c1 [Compound 120]
< 10 nM | < 10 nM | Cc1cc(Nc2cc(C)[nH]n2)nc(C2(O)CCC(C(=O)NCc3ccc(-n4cc(Cl)cn4)nc3)C2)c1 (mixture of isomers) [Compound 126]
10 to 100 nM | 10 to 100 nM | Cc1cc(Nc2cc(C)[nH]n2)nc([C@]2(O)CC[C@H](C(=O)NCc3ccc(-n4cccn4)nc3)C2)c1 [Compound 102]
< 10 nM | < 10 nM | Cc1cc(Nc2cc(C3CC3)[nH]n2)nc([C@@]2(O)CC[C@H](C(=O)NCc3ccc(-n4cc(F)cn4)nc3)C2)c1 [Compound 127]
< 10 nM | < 10 nM | Cc1cc(Nc2cc(C)[nH]n2)nc([C@@]2(O)CC[C@@H](C(=O)N[C@@H](C)c3ccc(-n4cc(F)cn4)nc3)C2)c1 [Compound 119]
< 10 nM | < 10 nM | Cc1cc(Nc2cc(C)[nH]n2)nc([C@@]2(O)CC[C@H](C(=O)N[C@@H](C)c3ccc(-n4cc(F)cn4)nc3)C2)c1 (single isomer, unassigned) [Compound 122]
< 10 nM | < 10 nM | Cc1cc(Nc2cc(C)[nH]n2)nc([C@]2(O)CC[C@@H](C(=O)NCc3ccc(-n4cccn4)nc3)C2)c1 [Compound 103]
< 10 nM | < 10 nM | CCOc1ccc(CNC(=O)C2CC[C@](O)(c3cc(C)cc(Nc4cc(C5CC5)[nH]n4)n3)C2)cc1 (stereo partly shown) [Compound 105]
< 10 nM | 10 to 100 nM | Cc1cc(Nc2cc(C)[nH]n2)nc([C@@]2(O)CC[C@@H](C(=O)NCc3ccc(-n4cccn4)nc3)C2)c1 [Compound 101]
– | < 10 nM | Cc1cc(Nc2cc(C)[nH]n2)nc([C@]2(O)CC[C@@H](C(=O)N[C@@H](C)c3ccc(-n4cc(F)cn4)nc3)C2)c1 (single isomer, unassigned) [Compound 121]
